Laboratory results from paper PMC4932917, “Structural basis for acyl-group discrimination by human Gcn5L2” (Acta Crystallographica. Section D, Structural Biology, 2016).

Target: T1, human Gcn5L2 (hsGcn5L2) (Homo sapiens, UniProt Q92830)
T1 construct: gene KAT2A; catalytic domain, amino acids 497–662
Assay: X-ray crystal structure ([…] Å); Ki from enzyme-coupled acetylation assay on purified catalytic domain
Format: biochemical

T1 sequence (Q92830 497-662): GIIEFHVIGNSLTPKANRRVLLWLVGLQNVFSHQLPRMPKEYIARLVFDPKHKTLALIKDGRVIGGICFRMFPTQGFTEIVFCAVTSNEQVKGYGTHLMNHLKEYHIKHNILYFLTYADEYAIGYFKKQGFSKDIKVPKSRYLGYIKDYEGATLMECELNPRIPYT

Structure (SMILES): CCCC(=O)SCCNC(=O)CCNC(=O)[C@H](O)C(C)(C)COP(=O)(O)OP(=O)(O)OC[C@H]1O[C@@H](n2cnc3c(N)ncnc32)[C@H](O)[C@@H]1OP(=O)(O)O [butyryl-CoA]
- Ki: 5.6 ± 0.7 µM
